The supplement of paper PMC11781733

Key:
Conditions in all cases: exposure time: 15 min to 3 h acute
Dugesia japonica [1] = assay: crawl-out incidence (% planarians); higher = higher incidence or increase relative to vehicle control
Procedure: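 Adult asexual Dugesia japonica planarians (1 per well, 48-well plate, n=24 over technical triplicates) were exposed acutely (15 min to 3 h) to each compound (0.5% DMSO or water vehicle) and screened on a robotic platform for crawl-out, stickiness, body shape, phototaxis, noxious-heat scrunching and locomotion endpoints. Binary endpoints are incidence rate x100. Continuous endpoints are the median response normalised to the plate vehicle median, as % change or difference. Negative incidences after vehicle subtraction were set to 0.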

Dugesia japonica [2] = assay: resting fraction in dark vs vehicle (difference in fraction x100 vs vehicle); higher = higher incidence or increase relative to vehicle control
Procedure: (§1)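 Adult asexual Dugesia japonica planarians (1 per well, 48-well plate, n=24 over technical triplicates) were exposed acutely (15 min to 3 h) to each compound (0.5% DMSO or water vehicle) and screened on a robotic platform for crawl-out, stickiness, body shape, phototaxis, noxious-heat scrunching and locomotion endpoints. Binary endpoints are incidence rate x100 normalised to in-plate vehicle controls. Continuous endpoints are the median response normalised to the plate vehicle median, as % change or difference. Negative incidences after vehicle subtraction were set to 0.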

Dugesia japonica [3] = assay: hyperkinesis incidence (% planarians (vehicle-normalised)); higher = higher incidence or increase relative to vehicle control
Procedure: as §1

Dugesia japonica [4] = assay: stickiness incidence (% planarians (vehicle-normalised)); higher = higher incidence or increase relative to vehicle control
Procedure: as §1

Dugesia japonica [5] = assay: corkscrew incidence (% planarians (vehicle-normalised)); higher = higher incidence or increase relative to vehicle control
Procedure: as §1

Dugesia japonica [6] = assay: speed second 30 s blue light vs vehicle (% change vs vehicle); higher = higher incidence or increase relative to vehicle control
Procedure: as §1

Dugesia japonica [7] = assay: total locomotor bursts minus vehicle (bursts difference vs vehicle); higher = higher incidence or increase relative to vehicle control
Procedure: as §1

Dugesia japonica [8] = assay: loss of heat-induced scrunching incidence (% planarians (vehicle-normalised)); higher = higher incidence or increase relative to vehicle control
Procedure: as §1

Dugesia japonica [9] = assay: resting fraction in blue light vs vehicle (difference in fraction x100 vs vehicle); higher = higher incidence or increase relative to vehicle control
Procedure: as §1

Dugesia japonica [10] = assay: speed first 30 s blue light vs vehicle (% change vs vehicle); higher = higher incidence or increase relative to vehicle control
Procedure: as §1

Dugesia japonica [11] = assay: noxious heat displacement strength vs vehicle (% change vs vehicle); higher = higher incidence or increase relative to vehicle control
Procedure: as §1

Dugesia japonica [12] = assay: any abnormal body shape incidence (% planarians (vehicle-normalised)); higher = higher incidence or increase relative to vehicle control
Procedure: as §1

Dugesia japonica [13] = assay: loss of phototaxis incidence (% planarians (vehicle-normalised)); higher = higher incidence or increase relative to vehicle control
Procedure: as §1

Dugesia japonica [14] = assay: speed in dark vs vehicle (% change vs vehicle); higher = higher incidence or increase relative to vehicle control
Procedure: as §1

Dugesia japonica [15] = assay: contracted body shape incidence (% planarians (vehicle-normalised)); higher = higher incidence or increase relative to vehicle control
Procedure: as §1

Dugesia japonica [16] = assay: pharynx extrusion incidence (% planarians (vehicle-normalised)); higher = higher incidence or increase relative to vehicle control
Procedure: as §1

Dugesia japonica [17] = assay: C-shape incidence (% planarians (vehicle-normalised)); higher = higher incidence or increase relative to vehicle control
Procedure: as §1

Dugesia japonica [18] = assay: anxiety (time in outer well region) vs vehicle (% change vs vehicle); higher = higher incidence or increase relative to vehicle control
Procedure: as §1

Row | Compound | crawl-out incidence (Dugesia japonica [1]) | resting fraction in dark (Dugesia japonica [2]) | hyperkinesis incidence (Dugesia japonica [3]) | stickiness incidence (Dugesia japonica [4]) | corkscrew incidence (Dugesia japonica [5]) | speed second 30 s blue light (Dugesia japonica [6]) | total locomotor bursts minus vehicle (Dugesia japonica [7]) | loss of heat-induced scrunching incidence (Dugesia japonica [8]) | resting fraction in blue light (Dugesia japonica [9]) | speed first 30 s blue light (Dugesia japonica [10]) | noxious heat displacement strength (Dugesia japonica [11]) | any abnormal body shape incidence (Dugesia japonica [12]) | loss of phototaxis incidence (Dugesia japonica [13]) | speed in dark (Dugesia japonica [14]) | contracted body shape incidence (Dugesia japonica [15]) | pharynx extrusion incidence (Dugesia japonica [16]) | C-shape incidence (Dugesia japonica [17]) | anxiety (Dugesia japonica [18])
1 | O=C(CCCN1CC=C(n2c(=O)[nH]c3ccccc32)CC1)c1ccc(F)cc1 [droperidol] (3.16 µM) | 0 | 62.6 | 37.5 | 8.33 | 8.33 | -89.6 | 18.8 | 66.7 | 66.1 | -90.1 | -42.7 | 50 | 45.8 | -77.5 | 16.7 | 0 | 12.5 | -4.16
2 | O=C(CCCN1CC=C(n2c(=O)[nH]c3ccccc32)CC1)c1ccc(F)cc1 [droperidol] (10 µM) | 0 | 68.7 | 25 | ≤ 0 | 12.5 | -91.1 | 19.5 | 70.8 | 67.9 | -93.8 | -23.3 | 70.8 | 54.2 | -80 | 29.2 | 0 | 20.8 | -31.9
3 | O=C(CCCN1CC=C(n2c(=O)[nH]c3ccccc32)CC1)c1ccc(F)cc1 [droperidol] (31.6 µM) | 0 | 86.7 | 25 | 12.5 | 4.17 | -94.3 | 12.2 | 75 | 85.4 | -94.6 | -34 | 95.8 | 58.3 | -81.9 | 70.8 | 0 | 29.2 | -26.3
4 | O=C(CCCN1CC=C(n2c(=O)[nH]c3ccccc32)CC1)c1ccc(F)cc1 [droperidol] (100 µM) | 4.17 | 74.8 | 0 | 13 | 0 | -96.2 | 30 | 73.9 | 93.1 | -94.2 | -26.6 | 100 | 60.9 | -79.8 | 100 | 0 | 4.35 | -37
5 | CN(C)CCC[C@@]1(c2ccc(F)cc2)OCc2cc(C#N)ccc21 [escitalopram] (31.6 µM) | 0 | -4.32 | 0 | 8.33 | 0 | 4.85 | -1.25 | 37.5 | 0 | 12.5 | -31.5 | 0 | 4.17 | -4.33 | 4.17 | 0 | 0 | 3.28
6 | CN(C)CCC[C@@]1(c2ccc(F)cc2)OCc2cc(C#N)ccc21 [escitalopram] (100 µM) | 0 | -4.57 | 0 | ≤ 0 | 0 | -2.15 | 1.75 | 25 | -0.46 | -13.7 | -34 | 0 | 16.7 | -3.87 | 0 | 0 | 0 | 1.47
7 | CN(C)CCC[C@@]1(c2ccc(F)cc2)OCc2cc(C#N)ccc21 [escitalopram] (316 µM) | 0 | -1.78 | 50 | ≤ 0 | 0 | -35.5 | 16 | 25 | -0.69 | -31.5 | -39.8 | 50 | ≤ 0 | -24.6 | 0 | 0 | 0 | 1.26
8 | CN(C)CCC[C@@]1(c2ccc(F)cc2)OCc2cc(C#N)ccc21 [escitalopram] (1000 µM) | 4.17 | 17.6 | 56.5 | 30.4 | 26.1 | -66.8 | 37.8 | 60.9 | 18.9 | -68.2 | -59 | 69.6 | 8.7 | -42.1 | 4.35 | 0 | 0 | 19.7
9 | CN1CC(=O)N=C1NC(=O)Nc1cccc(Cl)c1 [fenobam] (100 µM) | 0 | 0 | 0 | ≤ 0 | 0 | -27 | 2 | 8.33 | 0.38 | -26.8 | -43 | 0 | ≤ 0 | -18.5 | 0 | 0 | 0 | -2.96
10 | CN1CC(=O)N=C1NC(=O)Nc1cccc(Cl)c1 [fenobam] (178 µM) | 0 | 0.09 | 0 | ≤ 0 | 0 | -18.9 | 0.5 | ≤ 0 | 0 | -12.6 | -42.2 | 0 | ≤ 0 | -3.57 | 0 | 0 | 0 | 3.95
11 | CN1CC(=O)N=C1NC(=O)Nc1cccc(Cl)c1 [fenobam] (316 µM) | 0 | 0 | 0 | ≤ 0 | 0 | -16.9 | 0 | ≤ 0 | 0.18 | -14.2 | -32.2 | 0 | ≤ 0 | -12.6 | 0 | 0 | 0 | -0.1
12 | CN1CC(=O)N=C1NC(=O)Nc1cccc(Cl)c1 [fenobam] (562 µM) | 0 | 0.55 | 0 | ≤ 0 | 0 | -18.3 | 2.75 | ≤ 0 | 1.05 | -24.4 | -39.8 | 0 | ≤ 0 | -21.3 | 0 | 0 | 0 | -14.4
